In brackets after ≈: the same amount, converted by molar mass. Where two headings read alike, the source gives them in different places.
Tests used:
Format in all cases: cell-based
S. uberis ATCC 19436 = experiment: MIC by broth microdilution, S. uberis; conditions: Streptococcus uberis, read-out: S. uberis ATCC 19436 MIC
Description: (§1) Antibacterial susceptibility testing was performed in triplicate (biological) by measuring minimum inhibitory concentrations (MICs) by broth microdilution in 96-well flat bottom microtiter plates (ThermoFisher Scientific, New Zealand). S. uberis ATCC 19436, S. aureus ATCC 6538, or E. coli ATCC 10596 cells grown overnight were diluted to an OD600 of approximately 0.025, so that the final concentration of cells in the MIC assay was approximately 5×10^5 cfu/mL in media as follows: S. uberis; Todd Hewitt Broth (THB), S. aureus; Tryptic Soy Broth (TSB) and Cation Adjusted Muller Hinton Broth (CAMHB), and E. coli; Lysogeny Borth (LB) and CAMHB, before being dispensed into microtiter wells. As required additional sterile Zinc Sulphate (Heptahydrate) was supplemented into the media, so the final concentration was 50 μM. Test compounds were added to starting wells and two-fold serial dilutions were undertaken to generate a range of inhibitor concentrations at a final volume of 200 μl. Media and test compound-free (untreated) controls were included in each microtiter plate in triplicate. After 24 h incubation at 37° C. and 200 rpm, the OD600 of wells were read using a Varioskan Flash plate reader (ThermoFisher Scientific, New Zealand). The MIC was reported as the lowest concentration of the test compound for which no growth occurred, as determined by OD600 readings. The minimum bactericidal concentration (MBC) was determined using the Miles-Misra drop-plate method to measure the viability of cells in response to test compound challenge.

E. coli ATCC 10596 = experiment: MIC by broth microdilution, E. coli; conditions: Escherichia coli, read-out: E. coli ATCC 10536 MIC
Description: as §1

S. aureus ATCC 6538 = experiment: MIC by broth microdilution, S. aureus; conditions: Staphylococcus aureus, read-out: S. aureus ATCC 6538 MIC
Description: as §1

[1] = ATCC 10536 / ATCC 10596, No Zinc
[2] = ATCC 10536 / ATCC 10596, Zinc (50 μM)

| SMILES | MIC (S. uberis ATCC 19436; ATCC19436, No Zinc) [mg/L] | MIC (S. uberis ATCC 19436; ATCC19436, Zinc (50 μM)) [mg/L] | MIC (E. coli ATCC 10596; [1]) [mg/L] | MIC (E. coli ATCC 10596; [2]) [mg/L] | MIC (S. aureus ATCC 6538; ATCC6538, No Zinc) [mg/L] | MIC (S. aureus ATCC 6538; ATCC6538, Zinc (50 μM)) [mg/L] |
| --- | --- | --- | --- | --- | --- | --- |
| CN(C)Cc1ccc2cccc(NS(=O)(=O)c3ccccc3C#N)c2n1 [ZDR077, N-(2-((Dimethylamino)methyl)quinolin-8-yl)-2-cyanobenzenesulfonamide] | > 256 | 1 (≈ 2.73 µM) | > 256 | > 256 | > 256 | > 256 |
| CN(C)Cc1ccc2cccc(NS(=O)(=O)c3cccc([N+](=O)[O-])c3)c2n1 [ZDR313, N-(2-((Dimethylamino)methyl)quinolin-8-yl)-3-nitrobenzenesulfonamide] | 128 (≈ 331 µM) | 0.25 (≈ 0.647 µM) | > 256 | > 256 | 128 (≈ 331 µM) | > 256 |
| O=S(=O)(Nc1cccc2ccc(CN3CCCC3)nc12)c1ccc(C(F)(F)F)cc1 [ZDR407, N-(2-(Pyrrolidin-1-ylmethyl)quinolin-8-yl)-4-(trifluoromethyl)benzenesulfonamide] | 128 (≈ 294 µM) | 0.125 (≈ 0.287 µM) | 256 (≈ 588 µM) | 256 (≈ 588 µM) | 64 (≈ 147 µM) | 256 (≈ 588 µM) |
| CCCCS(=O)(=O)Nc1cccc2ccc(CN(C)C)nc12 [ZDR321, N-(2-((Dimethylamino)methyl)quinolin-8-yl)butane-1-sulfonamide] | 256 (≈ 796 µM) | 0.25 (≈ 0.778 µM) | > 256 | > 256 | > 256 | 128 (≈ 398 µM) |
| O=S(=O)(Nc1cccc2ccc(CN3CCCCCC3)nc12)c1ccc(C(F)(F)F)cc1 [ZDR408, N-(2-(Azepan-1-ylmethyl)quinolin-8-yl)-4-(trifluoromethyl)benzenesulfonamide] | 32 (≈ 69 µM) | 0.125 (≈ 0.27 µM) | > 256 | 256 (≈ 552 µM) | 64 (≈ 138 µM) | 256 (≈ 552 µM) |
| CN(C)Cc1ccc2cccc(NS(=O)(=O)c3ccccc3C(F)(F)F)c2n1 [ZDR075, N-(2-((Dimethylamino)methyl)quinolin-8-yl)-2-(trifluoromethyl)benzenesulfonamide] | 256 (≈ 625 µM) | 0.125 (≈ 0.305 µM) | > 256 | > 256 | > 256 | > 256 |
| CN1CCN(Cc2ccc3cccc(NS(=O)(=O)c4ccc(C(F)(F)F)cc4)c3n2)CC1 [ZDR089, N-(2-((4-Methylpiperazin-1-yl)methyl)quinolin-8-yl)-4-(trifluoromethyl)benzenesulfonamide] | 64 (≈ 138 µM) | 0.5 (≈ 1.08 µM) | > 256 | > 256 | 256 (≈ 551 µM) | 128 (≈ 276 µM) |
| O=S(=O)(Nc1cccc2ccc(CNCCN3CCSCC3)nc12)c1ccc(C(F)(F)F)cc1 [ZDR113, N-(2-(((2-Thiomorpholinoethyl)amino)methyl)quinolin-8-yl)-4-(trifluoromethyl)benzenesulfonamide] | 128 (≈ 251 µM) | 1 (≈ 1.96 µM) | > 256 | > 256 | > 256 | > 256 |
| CN(C)Cc1ccc2cccc(NS(=O)(=O)c3ccc(Cl)s3)c2n1 [ZDR326, 5-Chloro-N-(2-((dimethylamino)methyl)quinolin-8-yl)thiophene-2-sulfonamide] | 128 (≈ 335 µM) | 0.125 (≈ 0.327 µM) | 256 (≈ 670 µM) | > 256 | 32 (≈ 83.8 µM) | 128 (≈ 335 µM) |
| CN(C)Cc1ccc2cccc(NS(=O)(=O)CC3CCOCC3)c2n1 [ZDR504, N-(2-((Dimethylamino)methyl)quinolin-8-yl)-1-(tetrahydro-2H-pyran-4-yl)methanesulfonamide] | > 256 | 0.5 (≈ 1.38 µM) | > 256 | > 256 | > 256 | 256 (≈ 704 µM) |
| COC(=O)Nc1ccc(S(=O)(=O)Nc2cccc3ccc(CN(C)C)nc23)cc1 [ZDR332, Methyl (4-(N-(2-((dimethylamino)methyl)quinolin-8-yl)sulfamoyl)phenyl)carbamate] | 256 (≈ 618 µM) | 2 (≈ 4.83 µM) | > 256 | > 256 | > 256 | > 256 |
